Holding throughout (test): NCI tumour cell line growth inhibition, 48 h
For assay [1], the system named is CAKI-1 renal.
Assay [2] concerns EKVX NSCLC.
The subject of assay [3] is HOP-62 NSCLC.
For assay [4], the system named is HOP-92 NSCLC.
The subject of assay [5] is HT29 colon.
For assay [6], the system named is OVCAR-8 ovarian.
Assay [7] concerns SK-MEL-5 melanoma.
In assay [8] the test system is SNB-75 CNS.
Assay [9] relates to U251 CNS.
Assay [10] deals with UACC-62 melanoma.

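Method: 48-hour compound exposure of cells in 96-well plates, five concentrations, linear interpolation of endpoints. GI50: concentration for 50% inhibition of growth. TGI: concentration producing complete growth inhibition.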 Bounds are passed on as bounds.

In the case of `O=C1C(CO)=C[C@@H](O)[C@H]2O[C@@H]12`, the TGI in assay [1], in assay [2], in assay [3], in [4], in assay [5] and in assay [6] was over 100 µM in each case. Further, the TGI in assay [7], in [8], in [9] and in assay [10] was over 100 µM in each case.

For `c1ccc2c(-c3cnn4cc(-c5ccc(N6CCNCC6)cc5)cnc34)ccnc2c1`, the GI50 is 1.35 µM in assay [1]; 1.89 µM in assay [2]; 0.634 µM in assay [3]; 1.59 µM in assay [4]; 0.547 µM in assay [5]; 1.45 µM in [6]. Further, the GI50 is 1.26 µM in assay [7], 0.441 µM in assay [8], 0.278 µM in assay [9] and 1.41 µM in assay [10]. The TGI in assay [1] was 2.77 µM; in assay [2] it was 3.76 µM; in assay [3] it was 1.24 µM; in assay [4], 3.03 µM; in [5], 1.91 µM; in [6] it was 3.05 µM. The TGI turned out to be 2.52 µM in assay [7], 2.12 µM in assay [8], 1.08 µM in assay [9] and 2.78 µM in assay [10].

On to `COc1ccc(/C(=C\c2cc(OC)c(OC)c(OC)c2)C(=O)O)cc1`, for which the TGI in assay [1], in assay [2], in assay [3], in assay [4], in assay [5] and in assay [6] was over 100 µM throughout. Besides, the TGI in [7] is 41.7 µM; in [8], 75.1 µM; in [9], over 100 µM; in assay [10], over 100 µM.

As to `O=C1Nc2ccc(CN3CCOC3=O)cc2/C1=C/c1cc(CN2CCOCC2)c[nH]1`, the GI50 was 26.3 µM in assay [1]; 37.5 µM in assay [2]; 42.7 µM in assay [3]; 32 µM in assay [4]; 34.6 µM in [5]; 33.7 µM in assay [6]. For the same compound, the GI50 was 19.5 µM in assay [7], 52.8 µM in [8], over 75.6 µM in [9] and 34.4 µM in [10]. Further, the TGI in [1] was over 100 µM; in assay [2], over 100 µM; in assay [3], over 100 µM; in [4], over 92.3 µM; in [5], over 100 µM; in assay [6] it was over 100 µM. Moreover, the TGI in [7] is 43.5 µM; in [8], over 100 µM; in [9], over 100 µM; in assay [10], over 100 µM.

With `C=CCN(N=O)C(=O)N(CCCCC(NC(C)=O)C(=O)NCc1ccccc1)Cc1ccccc1` (stereo not given), the TGI in [1] was over 100 µM; in [2], over 100 µM; in [3], over 100 µM; in assay [4], 57.3 µM; in assay [5], 36.8 µM; in assay [6] it was over 100 µM. For the same compound, the TGI in [7] is 30 µM; in assay [8] it was over 100 µM; in assay [9] it was over 100 µM; in assay [10], over 100 µM.

For the compound `CNC(=O)/C(=C/c1ccc(OC)cc1)c1cc(OC)c(OC)c(OC)c1`, the TGI was over 100 µM in assay [1]; over 100 µM in [2]; over 100 µM in assay [3]; over 60.2 µM in [4]; 17.5 µM in assay [5]; 55.3 µM in assay [6]. In addition, the TGI in assay [7] was over 36.6 µM; in [8], 4.4 µM; in assay [9], 23.1 µM; in [10], over 48.6 µM.

Regarding `CC(=O)N1N=C(c2ccc(Nc3nc(Nc4ccc(F)cc4)nc(Nc4ccc(Cl)cc4)n3)cc2)CC1c1ccc(N(C)C)cc1` (stereo not given), the GI50 in assay [1] is 9.28 µM; in assay [2], 8.06 µM; in assay [3], 3.25 µM; in [4] it was 2.87 µM; in assay [5], 3.58 µM; in assay [6], 3.75 µM. Besides, the GI50 was 6.68 µM in assay [7], 3.02 µM in assay [8], 4.2 µM in assay [9] and 2.26 µM in assay [10]. For the same compound, the TGI in assay [1] was over 54.3 µM; in assay [2], over 90.9 µM; in assay [3], 13.2 µM; in assay [4], 19.1 µM; in assay [5], over 75.9 µM; in [6], 23.4 µM. Further, the TGI is 19.3 µM in assay [7], 20.3 µM in assay [8], 35.7 µM in [9] and 7.79 µM in [10].

With `C/C(=C1/N=C(c2ccccc2)OC1=O)c1ccccc1`, the TGI in [1], in assay [2], in [3], in assay [4], in assay [5] and in assay [6] was over 100 µM in each case. For the same compound, the TGI in assay [7], in assay [8], in assay [9] and in [10] was over 100 µM in each case.

With `COc1cc(/C=C2\NC(=S)C3Cc4c(OC)c(C)c(OC)c(OC)c4C2N3C)c(OC)c(C)c1OC` (stereo not given), the TGI in [1], in assay [2], in assay [3], in assay [4], in [5] and in assay [6] was over 100 µM in each case. The TGI in [7] was 73.1 µM; in assay [8], over 100 µM; in [9] it was over 100 µM; in [10], over 100 µM.

For `COC1C(O)CC(OC2CC(OC3CC(O[C@@H]4C(=O)c5c(cc6cc(OC7CC(OC8CC(O)C(O)C(C)O8)C(O)C(C)O7)c(C)c(O)c6c5O)C[C@H]4[C@H](OC)C(=O)[C@@H](O)[C@@H](C)O)OC(C)C3O)OC(C)C2O)OC1C` (stereo not given in full), the TGI in assay [1] was over 100 µM; in [2], 8.06 µM; in assay [3] it was 3.87 µM; in assay [4], 1.06 µM; in [5], over 56 µM; in assay [6], over 100 µM. The TGI in assay [7] is 0.032 µM; in assay [8] it was 0.447 µM; in [9] it was over 9.45 µM; in [10] it was 0.265 µM.

For `CC(C)C[C@H]1C(=O)N2CCC[C@H]2[C@]2(O)O[C@](NC(=O)[C@@H]3C=C4c5cccc6[nH]c(Br)c(c56)C[C@H]4N(C)C3)(C(C)C)C(=O)N12`, the TGI in assay [1], in assay [2], in [3], in [4], in [5] and in assay [6] was over 100 µM throughout. Also, the TGI in [7], in assay [8], in [9] and in assay [10] was over 100 µM in each case.

For the compound `CC(C)c1ccc(/C=N/N=C(N)N)cc1`, the GI50 in assay [1] was 6.31 µM; in assay [2], 5.33 µM; in assay [3], 4.61 µM; in [4], 1.35 µM; in assay [5], 3.19 µM; in assay [6] it was 10.8 µM. Also, the GI50 in assay [7] is 2.54 µM; in [8] it was 5.68 µM; in [9], 4.63 µM; in assay [10], 7.73 µM. Besides, the TGI in assay [1] came out at 22 µM; in assay [2] it was 24.4 µM; in assay [3], 17.9 µM; in assay [4], 7.27 µM; in assay [5], 9.65 µM; in [6], 28.3 µM. The TGI is 8.16 µM in assay [7], 26 µM in assay [8], 17 µM in [9] and 21.3 µM in [10].

On to `COc1ccc(C2CC(c3cccc(OC)c3)=NN2C(=O)c2cc(OC)c(OC)c(OC)c2)cc1` (stereo not given), for which the GI50 in [1] was 1.22 µM; in assay [2], 3.35 µM; in [3], over 23.1 µM; in assay [4], 1.04 µM; in assay [5] it was 0.507 µM; in assay [6], 5.83 µM. Further, the GI50 in assay [7] is 0.534 µM; in assay [8], 0.624 µM; in assay [9] it was 3.04 µM; in assay [10], 1.1 µM. Further, the TGI in assay [1], in assay [2], in [3], in assay [4], in assay [5] and in assay [6] was over 100 µM in each case. Also, the TGI was over 40.4 µM in assay [7], over 100 µM in assay [8], over 100 µM in assay [9] and over 100 µM in assay [10].

For the compound `Cc1cc(Cl)ccc1N1C(=O)C(=O)C(c2nc3ccccc3o2)C(=O)C1=O`, the TGI in assay [1], in [2], in [3], in [4], in assay [5] and in assay [6] was over 100 µM throughout. Moreover, the TGI in [7], in assay [8], in [9] and in assay [10] was over 100 µM in each case.
